One experiment concerns the target T1, Oxytocin receptor (Rattus norvegicus, UniProt P70536).
T1 sequence (P70536 whole entry): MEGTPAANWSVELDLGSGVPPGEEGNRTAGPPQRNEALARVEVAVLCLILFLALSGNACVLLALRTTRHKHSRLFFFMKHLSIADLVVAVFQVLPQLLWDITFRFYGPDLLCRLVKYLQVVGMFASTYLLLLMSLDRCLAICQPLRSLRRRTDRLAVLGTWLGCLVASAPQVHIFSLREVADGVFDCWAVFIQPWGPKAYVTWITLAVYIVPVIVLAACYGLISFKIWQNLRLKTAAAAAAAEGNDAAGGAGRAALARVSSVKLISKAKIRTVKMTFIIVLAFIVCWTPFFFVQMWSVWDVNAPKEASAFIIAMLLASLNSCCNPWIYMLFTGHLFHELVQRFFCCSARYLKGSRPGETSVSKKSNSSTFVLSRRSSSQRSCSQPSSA
Put plainly: Compound was tested for its ability to inhibit binding of Oxytocin to its Oxytocin receptor in rat uterine tissue.

Experiment [1] is described as follows: Compound was tested for its ability to inhibit binding of arginine vasopressin to Vasopressin receptor (V1 subtype).

What is called IC50 is the midpoint of a concentration-inhibition curve. In the case of `COc1cc(C)cc2c1Oc1ccc([C@@H](O)CC(C)C)c(OC)c1C(=O)OC2`, at Oxytocin receptor, the IC50 is above 100 µM.
At Oxytocin receptor, `COc1c(C(=O)CC(C)C)ccc2c1C(=O)OCc1cc(C)cc(O)c1O2` had a 50% inhibitory concentration (IC50) above 100 µM.
On Oxytocin receptor, `COc1c([C@H](CC(C)C)OC(C)=O)ccc2c1C(=O)Oc1cc(C)cc(C=O)c1O2` yielded an IC50 above 100 µM.
On to `COc1c([C@H](CC(C)C)OC(C)=O)ccc2c1C(=O)OCc1cc(C)cc(O)c1O2`, for which the IC50 was 8.4 µM on Oxytocin receptor and above 100 µM in experiment [1].
Consider `COc1c([C@H](CC(C)C)OC(C)=O)ccc2c1C(=O)OCc1cc(C)cc(OC(C)=O)c1O2`, for which the IC50 on Oxytocin receptor turned out to be 5 µM.
Take `COc1cc(C)cc2c1Oc1ccc([C@H](CC(C)C)OC(C)=O)c(OC)c1C(=O)OC2`: the IC50 was 21 µM on Oxytocin receptor and above 100 µM in experiment [1].
In the case of `COc1c([C@@H](O)CC(C)C)ccc2c1C(=O)OCc1cc(C)cc(O)c1O2` [PENICILLIDE], the IC50 at Oxytocin receptor worked out at 67 µM.

Values taken from ChEMBL document CHEMBL1150035, “Potent, non-peptidic oxytocin receptor antagonists from a natural source” (Bioorg Med Chem Lett, 1993).
